Measured values: US9023789B2, “Amylin analogs and pharmaceutical compositions thereof” (Novo Nordisk A/S, priority 2012, dated 2015)

What was measured:
[1] = target: T1, human amylin receptor (membranes from Amylin 3(a)/CRE-luc cells) (Homo sapiens, UniProt O60896+P30988); test: ASSAY (V) binding to the human amylin receptor (SPA, 125I-rat amylin);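 also: competition binding of cell membranes (35 ng/µL) mixed with SPA beads in 384-well plates at 40 µL total volume, read by scintillation counting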
T1 construct: expressed in transfected cells
T1 sequence (P30988 25-474): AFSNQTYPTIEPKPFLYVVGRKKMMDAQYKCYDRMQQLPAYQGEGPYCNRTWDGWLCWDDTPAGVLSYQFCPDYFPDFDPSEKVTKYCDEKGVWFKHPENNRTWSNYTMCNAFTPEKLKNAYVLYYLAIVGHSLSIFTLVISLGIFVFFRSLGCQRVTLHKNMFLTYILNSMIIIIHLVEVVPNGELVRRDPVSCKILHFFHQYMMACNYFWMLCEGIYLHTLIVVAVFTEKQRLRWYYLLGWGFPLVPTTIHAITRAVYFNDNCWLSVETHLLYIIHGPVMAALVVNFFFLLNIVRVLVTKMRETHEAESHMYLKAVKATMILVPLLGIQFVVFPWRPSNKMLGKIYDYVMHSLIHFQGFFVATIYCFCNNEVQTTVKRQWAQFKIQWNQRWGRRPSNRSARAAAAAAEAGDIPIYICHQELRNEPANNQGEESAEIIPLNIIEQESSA
T1 sequence (O60896 24-148 partner): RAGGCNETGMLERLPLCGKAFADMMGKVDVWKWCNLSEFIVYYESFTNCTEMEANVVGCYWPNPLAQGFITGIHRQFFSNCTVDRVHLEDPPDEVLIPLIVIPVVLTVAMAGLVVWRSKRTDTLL

[2] = ASSAY (III) ThT fibrillation assay for physical stability; type: physicochemical
Outline: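 Formulations with 1 μM ThT, pH adjusted as required, incubated at 37 °C with 960 rpm orbital shaking; fluorescence (ex 444/em 485 nm) read every 20 min. Fibrillation reported as mean ThT fluorescence ± SD of 4–8 replicates at time points; polypeptide concentration measured by reverse-phase HPLC before and after, post-centrifugation.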

[3] = target: T2, human amylin 3(a) receptor (human calcitonin receptor + RAMP-3) in BHK570 cells (Homo sapiens, UniProt O60896+P30988); test: ASSAY (II)a functional assay, human amylin receptor (CRE luciferase); type: cell-based
T2 construct: expressed in transfected cells
Outline: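 BHK cells stably carrying a CRE-luciferase reporter plus calcitonin receptor, or calcitonin receptor with RAMP-3 for the amylin 3(a) receptor, were seeded and kept overnight at 37° C. Compounds were added in assay medium with 10% FBS and 10 mM Hepes, pH 7.4, for 3 hours at 37° C, then luminescence was counted.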

[4] = Table 5, selectivity, hCTR bind IC50 / hAmylin-R bind IC50
[5] = Table 5a, selectivity, hCTR bind IC50 / hAmylin-R bind IC50
[6] = Table 5b, selectivity, hCTR bind IC50 / hAmylin-R bind IC50
[7] = Table 5c, selectivity, hCTR bind IC50 / hAmylin-R bind IC50
[8] = Table 7, human binding selectivity, included for comparison
[9] = Table 7a (preferred compounds), human binding selectivity, included for comparison
[10] = ratio of human calcitonin receptor binding IC50 to human amylin receptor binding IC50
[11] = hCTR funct. EC50 divided by hAmylin-R funct. EC50
[12] = hCTR funct. EC50 over hAmylin-R funct. EC50
[13] = human functional selectivity: hCTR funct. EC50 / hAmylin-R funct. EC50

SMILES	Ratio hCT/hAmylin binding [1, 4]	Ratio hCT/hAmylin binding [1, 5]	Ratio hCT/hAmylin binding [1, 6]	Ratio hCT/hAmylin binding [1, 7]	Ratio hCT/hAmylin binding [1, 8]	Ratio hCT/hAmylin binding [1, 9]	Ratio hCT/hAmylin binding [1, 10]	ThT pH 4.0 lag time (h) [2] [h]	Ratio hCT/hAmylin funct. [3, 11]	Ratio hCT/hAmylin funct. [3, 12]	Ratio hCT/hAmylin funct. [3, 13]
CC[C@H](C)[C@H](NC(=O)[C@H](C)NC(=O)CNC(=O)[C@H](Cc1ccccc1)NC(=O)[C@H](CC(N)=O)NC(=O)[C@@H]1CCCN1C(=O)[C@H](CO)NC(=O)[C@H](CO)NC(=O)[C@H](Cc1c[nH]cn1)NC(=O)[C@H](CCCNC(=N)N)NC(=O)[C@H](CC(C)C)NC(=O)[C@H](Cc1ccccc1)NC(=O)[C@H](CCCNC(=N)N)NC(=O)[C@H](C)NC(=O)[C@H](CC(C)C)NC(=O)[C@H](CCCNC(=N)N)NC(=O)[C@H](CCC(N)=O)NC(=O)[C@@H](NC(=O)[C@H](C)NC(=O)[C@@H]1CSSC[C@H](NC(=O)[C@@H](N)CCCCNC(=O)CC[C@H](NC(=O)CCCCCCCCCCCCCCCCCCC(=O)O)C(=O)O)C(=O)N[C@@H](CC(N)=O)C(=O)N[C@@H]([C@@H](C)O)C(=O)N[C@@H](C)C(=O)N[C@@H]([C@@H](C)O)C(=O)N1)[C@@H](C)O)C(=O)N1CCC[C@H]1C(=O)N[C@@H](CO)C(=O)N[C@@H](CO)C(=O)N[C@H](C(=O)N[C@@H](CC(N)=O)C(=O)N[C@H](C(=O)NCC(=O)N[C@@H](CO)C(=O)N[C@@H](CC(N)=O)C(=O)N[C@H](C(=O)N[C@@H](Cc1ccc(O)cc1)C(N)=O)[C@@H](C)O)C(C)C)[C@@H](C)O [Example 83]	145.6	145.6	145.6	145.6	145.6	145.6	145.6	12	41.6	41.6	41.6
CC[C@H](C)[C@H](NC(=O)[C@H](C)NC(=O)CNC(=O)[C@H](Cc1ccccc1)NC(=O)[C@H](CC(N)=O)NC(=O)[C@@H]1CCCN1C(=O)[C@H](CO)NC(=O)[C@H](CO)NC(=O)[C@H](Cc1c[nH]cn1)NC(=O)[C@H](CCCNC(=N)N)NC(=O)[C@H](CC(C)C)NC(=O)[C@H](Cc1ccccc1)NC(=O)[C@H](Cc1c[nH]cn1)NC(=O)[C@H](C)NC(=O)[C@H](CC(C)C)NC(=O)[C@H](CCCNC(=N)N)NC(=O)[C@H](CCC(N)=O)NC(=O)[C@@H](NC(=O)[C@H](C)NC(=O)[C@@H]1CSSC[C@H](NC(=O)[C@@H](N)CCCCNC(=O)COCCOCCNC(=O)CCCCCCCCCCCCCCCCCCC(=O)O)C(=O)N[C@@H](CC(N)=O)C(=O)N[C@@H]([C@@H](C)O)C(=O)N[C@@H](C)C(=O)N[C@@H]([C@@H](C)O)C(=O)N1)[C@@H](C)O)C(=O)N1CCC[C@H]1C(=O)N[C@@H](CO)C(=O)N[C@@H](CO)C(=O)N[C@H](C(=O)N[C@@H](CC(N)=O)C(=O)N[C@H](C(=O)NCC(=O)N[C@@H](CO)C(=O)N[C@@H](CC(N)=O)C(=O)N[C@H](C(=O)N[C@@H](Cc1ccc(O)cc1)C(N)=O)[C@@H](C)O)C(C)C)[C@@H](C)O [Example 90]	42.2	42.2	42.2	42.2	42.2	42.2	42.2	10	7.2		7.2
CC[C@H](C)[C@H](NC(=O)[C@H](C)NC(=O)CNC(=O)[C@H](Cc1ccccc1)NC(=O)[C@H](CC(N)=O)NC(=O)[C@@H]1CCCN1C(=O)[C@H](CO)NC(=O)[C@H](CO)NC(=O)[C@H](Cc1c[nH]cn1)NC(=O)[C@H](CCCNC(=N)N)NC(=O)[C@H](CC(C)C)NC(=O)[C@H](Cc1ccccc1)NC(=O)[C@H](CC(N)=O)NC(=O)[C@H](C)NC(=O)[C@H](CC(C)C)NC(=O)[C@H](CCCNC(=N)N)NC(=O)[C@H](CCC(N)=O)NC(=O)[C@@H](NC(=O)[C@H](C)NC(=O)[C@@H]1CSSC[C@H](NC(=O)[C@@H](N)CCCCNC(=O)COCCOCCNC(=O)CCCCCCCCCCCCCCCCCCC(=O)O)C(=O)N[C@@H](CC(N)=O)C(=O)N[C@@H]([C@@H](C)O)C(=O)N[C@@H](C)C(=O)N[C@@H]([C@@H](C)O)C(=O)N1)[C@@H](C)O)C(=O)N1CCC[C@H]1C(=O)N[C@@H](CO)C(=O)N[C@@H](CO)C(=O)N[C@H](C(=O)N[C@@H](CC(N)=O)C(=O)N[C@H](C(=O)NCC(=O)N[C@@H](Cc1c[nH]cn1)C(=O)N[C@@H](CC(N)=O)C(=O)N[C@H](C(=O)N[C@@H](Cc1ccc(O)cc1)C(N)=O)[C@@H](C)O)C(C)C)[C@@H](C)O [Example 91]	100.8	100.8	100.8	100.8	100.8	100.8	100.8	4	36.9	36.9	36.9
CC[C@H](C)[C@H](NC(=O)[C@H](C)NC(=O)CNC(=O)[C@H](Cc1ccccc1)NC(=O)[C@H](CC(N)=O)NC(=O)[C@@H]1CCCN1C(=O)[C@H](CO)NC(=O)[C@H](CO)NC(=O)[C@H](Cc1c[nH]cn1)NC(=O)[C@H](CCCNC(=N)N)NC(=O)[C@H](CC(C)C)NC(=O)[C@H](Cc1ccccc1)NC(=O)[C@H](Cc1c[nH]cn1)NC(=O)[C@H](C)NC(=O)[C@H](CC(C)C)NC(=O)[C@H](CCCNC(=N)N)NC(=O)[C@H](CCC(N)=O)NC(=O)[C@@H](NC(=O)[C@H](C)NC(=O)[C@@H]1CSSC[C@H](NC(=O)[C@@H](N)CCCCNC(=O)CC[C@H](NC(=O)CC[C@H](NC(=O)CCCCCCCCCCCCCCCCCCC(=O)O)C(=O)O)C(=O)O)C(=O)N[C@@H](CC(N)=O)C(=O)N[C@@H]([C@@H](C)O)C(=O)N[C@@H](C)C(=O)N[C@@H]([C@@H](C)O)C(=O)N1)[C@@H](C)O)C(=O)N1CCC[C@H]1C(=O)N[C@@H](CO)C(=O)N[C@@H](CO)C(=O)N[C@H](C(=O)N[C@@H](CC(N)=O)C(=O)N[C@H](C(=O)NCC(=O)N[C@@H](CO)C(=O)N[C@@H](CC(N)=O)C(=O)N[C@H](C(=O)N[C@@H](Cc1ccc(O)cc1)C(N)=O)[C@@H](C)O)C(C)C)[C@@H](C)O [Example 92]	145.0	145.0	145.0	145.0	145.0	145.0	145.0	8	28.0	28.0	28.0
